We go through seven compounds from ChEMBL document CHEMBL1141633, “Synthesis and biological evaluation of chalcones as inhibitors of the voltage-gated potassium channel Kv1.3” (Bioorg Med Chem Lett, 2008).

T1 sequence (P22001 whole entry): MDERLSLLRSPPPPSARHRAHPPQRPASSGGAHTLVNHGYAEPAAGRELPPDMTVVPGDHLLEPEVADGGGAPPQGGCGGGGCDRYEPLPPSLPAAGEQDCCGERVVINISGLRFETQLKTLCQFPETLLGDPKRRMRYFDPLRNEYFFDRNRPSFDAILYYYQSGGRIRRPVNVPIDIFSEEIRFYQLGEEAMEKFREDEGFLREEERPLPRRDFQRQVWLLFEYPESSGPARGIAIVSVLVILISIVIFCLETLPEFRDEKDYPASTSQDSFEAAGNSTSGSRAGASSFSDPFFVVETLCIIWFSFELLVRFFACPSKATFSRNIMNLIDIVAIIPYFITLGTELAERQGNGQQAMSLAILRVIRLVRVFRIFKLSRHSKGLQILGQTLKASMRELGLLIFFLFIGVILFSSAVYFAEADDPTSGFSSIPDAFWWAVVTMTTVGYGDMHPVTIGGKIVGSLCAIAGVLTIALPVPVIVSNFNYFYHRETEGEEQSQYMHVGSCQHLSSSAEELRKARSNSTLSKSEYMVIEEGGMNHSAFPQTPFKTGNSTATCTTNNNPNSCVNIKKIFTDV

One assay concerns the target T1, Potassium voltage-gated channel subfamily A member 3 (Homo sapiens, UniProt P22001). In words: Inhibition in Kv1.3 expressed in human Jurkat cells by patch clamp method. The assay is classed as cell-based.
With `COc1cccc(/C=C/C(=O)c2cc(OC)c3occc3c2OC)c1`, it took 2400 nM to reach a half-maximal effect (EC50).

`COc1cccc(/C=C/C(=O)c2c(O)c(OC)c3occc3c2OC)c1` gave an EC50 of 900 nM.

For the compound `COc1cccc(/C=C/C(=O)c2cc3ccoc3c(OC)c2O)c1`, the response was half-maximal at 1700 nM (EC50).

`COc1cccc(/C=C(\C)C(=O)c2c(O)c(OC)c3occc3c2OC)c1` came in with a 50% effective concentration (EC50) of 3000 nM.

In turn, `COc1c(C(=O)/C=C/c2ccccc2)cc(OC)c2occc12` returned an EC50 of 2400 nM.

A further assay has as its target T1, Potassium voltage-gated channel subfamily A member 3. Nature of the assay: Inhibition in Kv1.3 expressed in […] by patch clamp method.
`COc1cccc(/C=C/C(=O)c2c(O)c(OC)c3occc3c2OC)c1` showed an EC50 of 800 nM.

Compound `COc1c(C(=O)/C=C/c2ccccc2)c(O)cc2occc12` yielded an EC50 of 17000 nM.

For `COc1c(C(=O)/C=C/c2ccccc2)c(O)c(OC)c2occc12`, the EC50 came out at 400 nM.
